# Test results taken from patent US10988462B2, “Pyrazole compounds substituted with heteroaryl and pharmaceutical use thereof” (Japan Tobacco Inc., priority 2018, dated 2021).
# Molecular target: human SGLT1 (Homo sapiens (Human), UniProt P13866)
# Test: SGLT1 inhibitory activity: intracellular uptake of 14C-AMG in human SGLT1-stably-expressing CHO-K1 cell line
# Format: cell-based
# Details: human SGLT1-stably-expressing CHO-K1 cells, 14C-AMG uptake; read-out: hSGLT1 IC50
# Procedure: SGLT1 inhibitory activities of test compounds (IC50 values) were calculated based on the amount of intracellular uptake of labelled α-methyl-D-glucopyranoside (^14C-AMG) transported by SGLT1.
# 1) Formation of Human SGLT1-Expressing Plasmid
# A DNA fragment containing human SGLT1 was amplified by PCR (Polymerase Chain Reaction) using pCMV6-hSGLT1 (OriGene) as a template. In the human SGLT1, NheI recognition and cleavage sequence was added to the upstream of Kozac consensus sequence derived from a vector, and a stop codon, TAG, and SalI recognition and cleavage sequence were added to the immediate downstream of the protein-translating region of human SGLT1. The purified DNA fragment was cleaved by restriction enzymes NheI and SalI, followed by ligation with pcDNA3.1 (+) which was cleaved by NheI and XhoI, thereby forming human SGLT1-expressing plasmid, pcDNA-hSGLT1. The nucleic acid sequence of human SGLT1 inserted into a vector was completely identical to the protein-translated region of human SGLT1 sequence (Accession number NM_000343) registered in GenBank, and the sequence of the portion connected to the vector was as expected.
# 2) Establishment of Human SGLT1-Stably-Expressing Cell Lines
# Human SGLT-expressing plasmid, pcDNA-hSGLT1, was transfected into each CHO-K1 cell by Lipofectamine 2000 (Invitrogen) and cultured in the presence of G418 (Nacalai Tesque) to select drug-resistant cell lines. A cell line having the highest ratio (S/B ratio) of the amount of intracellular uptake of ^14C-AMG per cell to the amount of intracellular uptake of ^14C-AMG after treatment with a SGLT inhibitor, phlorizin, was selected as a human SGLT1-stably-expressing cell line from the drug-resistant cell lines.
# 3) Assessment of SGLT1 Inhibitory Activity
# Human SGLT1-stably-expressing cell lines were seeded at 5×10^4 cells/well on BioCoat™ Poly-D-Lysine 96 well plate with Lid (Becton, Dickinson and Company) and cultured at 37° C. under 5% CO2 overnight. The medium was replaced with 100 μL/well of Na(−) buffer (140 mM choline chloride, 2 mM KCl, 1 mM MgCl2, 1 mM CaCl2, 10 mM HEPES, 5 mM Tris, pH 7.4), and then the mixture was let stand at 37° C. under 5% CO2 for 20 minutes. After removal of Na(−) buffer, thereto was added 40 μL/well of a test compound solution prepared with Na(+) buffer (140 mM NaCl, 2 mM KCl, 1 mM MgCl2, 1 mM CaCl2, 10 mM HEPES, 5 mM Tris, pH 7.4) comprising BSA. Then, thereto was added 40 μL/well of Na(+) buffer comprising 8 kBq of ^14C-AMG and 2 mM AMG, and the mixture was mixed well. For a blank, 40 μL/well of Na(−) buffer comprising BSA was added, and in addition, 40 μL/well of Na(−) buffer comprising 8 kBq of ^14C-AMG and 2 mM AMG was added, and the mixture was mixed well. After incubation by being let stand for 1 hour at 37° C. under 5% CO2, cells were washed twice with 100 μL/well of ice-cooled wash buffer (100 mM AMG, 140 mM choline chloride, 2 mM KCl, 1 mM MgCl2, 1 mM CaCl2, 10 mM HEPES, 5 mM Tris, pH 7.4) to terminate the reaction. A cell lysate was prepared by addition of 50 μL/well of 0.2N aqueous NaOH solution. In the assessment for the uptake ability of ^14C-AMG, the total amount of the cell lysate was transferred to OptiPlate 96 (Perkin-Elmer) with 100 μL/well of MicroScint-40 (Perkin-Elmer) dispensed and ^14C of CPM was measured with TOPCOUNT NXT (Perkin-Elmer).
# Data was calculated by deducting the average value of CPM for blank well from the average value of CPM for each well treated. An inhibition rate for each test compound in each concentration was calculated from the following equation: [(A−B)/A]×100 wherein A is data for a solvent control and B is data for treatment with each test compound.
# Sequence of human SGLT1 (P13866 whole entry): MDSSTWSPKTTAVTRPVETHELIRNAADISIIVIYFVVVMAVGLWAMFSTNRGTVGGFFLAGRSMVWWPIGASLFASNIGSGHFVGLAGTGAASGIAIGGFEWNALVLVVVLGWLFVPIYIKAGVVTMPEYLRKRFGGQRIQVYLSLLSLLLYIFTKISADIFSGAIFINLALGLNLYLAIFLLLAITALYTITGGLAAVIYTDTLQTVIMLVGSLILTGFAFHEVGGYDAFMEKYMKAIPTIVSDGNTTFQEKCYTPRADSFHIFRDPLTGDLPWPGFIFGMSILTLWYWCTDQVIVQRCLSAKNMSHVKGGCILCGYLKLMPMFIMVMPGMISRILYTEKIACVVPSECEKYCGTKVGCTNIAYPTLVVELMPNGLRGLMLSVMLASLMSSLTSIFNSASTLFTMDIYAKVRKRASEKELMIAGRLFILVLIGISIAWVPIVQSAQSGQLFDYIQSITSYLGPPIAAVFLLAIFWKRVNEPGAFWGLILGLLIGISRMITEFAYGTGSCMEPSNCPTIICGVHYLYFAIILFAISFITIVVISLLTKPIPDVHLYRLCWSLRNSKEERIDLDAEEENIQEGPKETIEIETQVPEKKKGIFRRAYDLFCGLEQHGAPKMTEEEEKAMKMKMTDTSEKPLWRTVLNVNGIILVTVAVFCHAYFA
row,SMILES,IC50
1,C[C@H]1C(=O)NC[C@@H]1C(=O)Nc1cc(-c2cc(F)cc(OC(C)(C)C(F)(F)F)c2)n(-c2cncnc2)n1 [Example 22],3.4 nM
2,C[C@H]1C(=O)NC[C@@H]1C(=O)Nc1cc(-c2cc(F)cc(OC(C)(C)C(F)(F)F)c2)n(-c2cnccn2)n1 [Example 23],11 nM
3,C[C@H]1C(=O)NC[C@@H]1C(=O)Nc1cc(-c2cc(F)cc(OC(C)(C)C(F)(F)F)c2)n(-c2ccc(C(F)(F)F)cn2)n1 [Example 24],5.3 nM
4,C[C@H]1C(=O)NC[C@@H]1C(=O)Nc1cc(-c2cc(F)cc(OCC(F)(F)F)c2)n(-c2cnc(C(F)(F)F)nc2)n1 [Example 25],5.7 nM

# The remaining lines, values ahead:
row,IC50,SMILES
1,47 nM,C[C@H]1C(=O)NC[C@@H]1C(=O)Nc1cc(-c2cccc(OC(F)(F)F)c2)n(-c2cnc(C(F)(F)F)nc2)n1 [Example 26]
2,30 nM,C[C@H]1C(=O)NC[C@@H]1C(=O)Nc1cc(-c2cc(F)cc(OC(F)(F)F)c2)n(-c2cnc(C(F)(F)F)nc2)n1 [Example 27]
3,7.2 nM,C[C@H]1C(=O)NC[C@@H]1C(=O)Nc1cc(-c2cc(F)cc(OC(F)(F)F)c2)n(-c2ccc(C(F)(F)F)nc2)n1 [Example 28]
4,52 nM,C[C@H]1C(=O)NC[C@@H]1C(=O)Nc1cc(-c2cc(F)cc(OC(F)(F)F)c2)n(-c2cncnc2)n1 [Example 29]
5,2.7 nM,C[C@H]1C(=O)NC[C@@H]1C(=O)Nc1cc(-c2cc(F)cc(OC(F)(F)F)c2)n(-c2cncc(Cl)c2)n1 [Example 30]
6,5.7 nM,C[C@H]1C(=O)NC[C@@H]1C(=O)Nc1cc(-c2cc(F)cc(OCC(F)(F)F)c2)n(-c2cncc(C(F)(F)F)c2)n1 [Example 31]
